The experiment addresses BACE (Homo sapiens, UniProt P56817). Kind of experiment: Phage ELISA of phage-displayed peptides on immobilised BACE. It counts as binding. On the set-up: The cDNA for the catalytic domain of human BACE (residues 1-460) was PCR-amplified; human IgG1 heavy chain (C, cleaved yes); thrombin cleavage site (C); made in house; host or cells: CHO DG44 cells (stably transfected, secreted). The note with it: clones from solid phase panning at pH 7.0. How it is done: Two highly selected and homologous 12 mer phage peptides bound BACE specifically and reproducibly in phage-ELISA tests. Bristol-Myers Squibb fUSE5-based C4C, C6C, 5- and 15 mer libraries, and M13-based C7C libraries, and 7- and 12 mer libraries obtained from New England Biolabs, Beverly, Mass. were panned for three cycles against BACE (produced as described herein in Example 3). BACE was immobilized by coating at 0.5 μg/well in 4 wells of Dynex Immulon 4HBX plates overnight at 4° C. in 0.1M NaHCO3 buffer, pH 9.0. Panning was by standard procedures at room temperature that involved blocking wells with 2% BSA in PBS and elution with 0.1M HCL, pH 2.2. The vector NTI alignment tool and visual inspection of sequences were employed to analyze the selected peptides.
After sequencing approximately 20-50 clones from each library after three cycles of selection, we prepared essentially all possible candidate clones (39 clones in total) for phage-ELISA to obtain direct evidence for affinity to BACE. […] We therefore sequenced additional 12 mer clones to try to find additional candidate clones. […] This […] (SEQ ID NO:20) peptide is homologous to […] (SEQ ID NO:19) and consistent with the specific binding of both those peptides to BACE. The […] (SEQ ID NO:20) peptide and […] (SEQ ID NO:19) peptides were the two most efficiently recovered clones with 13 and 9 copies, respectively. […]

Sequence of BACE (P56817 46-460 limits assumed): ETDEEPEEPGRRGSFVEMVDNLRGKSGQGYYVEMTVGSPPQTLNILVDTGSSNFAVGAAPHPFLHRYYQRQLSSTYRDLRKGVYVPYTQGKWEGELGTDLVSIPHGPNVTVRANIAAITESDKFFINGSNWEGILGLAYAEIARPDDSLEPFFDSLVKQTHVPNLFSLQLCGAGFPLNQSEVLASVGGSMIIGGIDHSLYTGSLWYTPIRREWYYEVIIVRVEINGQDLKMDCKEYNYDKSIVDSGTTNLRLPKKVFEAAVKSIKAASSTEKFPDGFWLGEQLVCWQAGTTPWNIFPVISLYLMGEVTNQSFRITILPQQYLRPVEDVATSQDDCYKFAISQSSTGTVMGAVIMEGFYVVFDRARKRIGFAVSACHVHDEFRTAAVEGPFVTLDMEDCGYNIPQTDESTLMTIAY

Turning to Ac-NLTTYPYFIPLP-OH [BMS-561871], the “phage ELISA binding to BACE” value is given as “specifically bind to BACE”.

(Values after patent US7314726B2, “Beta secretase exosite binding peptides and methods for identifying beta secretase modulators” (Bristol-Myers Squibb Company, priority 2002, dated 2008).)
